Where two headings read alike, the source gives them in different places.
Assays:
[1] = target: MELK (Homo sapiens, UniProt Q14680); assay: Kinase assay: MELK activity, phosphorylation of FITC-labeled histone H3 peptide measured by IMAP fluorescence polarization; type: biochemical; details: read-out: IC50 (μM) (kinase assay)
Outline: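 Compounds, serially diluted from 12.5 mM DMSO stocks to 1% final DMSO, were tested with FITC-labeled histone H3 peptide as substrate. The reaction was stopped with progressive binding solution. Fluorescence polarization was read after 0.5 hour at room temperature.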

[2] = system: HT-1197 cells; assay: Cell-based assay: anti-proliferative activity, Cell Counting Kit-8, 72 hours (HT-1197, negative control without MELK expression); details: Homo sapiens, HT1197, 72 h, HT1197 cells (negative control, no MELK expression), 72 hours
Outline: (§1)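 Anti-MELK western blot on crude lysates → MELK status per line. Cells plated 96-well, compound exposure, CCK-8 readout at 72 h; IC50 calculated.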

[3] = system: DU4475; assay: Cell-based assay: anti-proliferative activity, Cell Counting Kit-8, 72 hours (DU4475); details: Homo sapiens, DU-4475, DU4475 cells
[4] = system: A549 cells; assay: Cell-based assay: anti-proliferative activity, Cell Counting Kit-8, 72 hours (A549); details: 72 hours
Outline: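 A549 cells seeded in 96-well plates and exposed to candidate inhibitors for 72 hours. Growth measured with Cell Counting Kit-8; IC50 values calculated from the dose response.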

[5] = system: T47D cells; assay: Cell-based assay: anti-proliferative activity, Cell Counting Kit-8, 72 hours (T47D)
Outline: as §1

[6] = 50 micro-M ATP, FITC-labeled histone H3 peptide substrate, IMAP fluorescence polarization

MELK, sequence (Q14680 whole entry, looked up): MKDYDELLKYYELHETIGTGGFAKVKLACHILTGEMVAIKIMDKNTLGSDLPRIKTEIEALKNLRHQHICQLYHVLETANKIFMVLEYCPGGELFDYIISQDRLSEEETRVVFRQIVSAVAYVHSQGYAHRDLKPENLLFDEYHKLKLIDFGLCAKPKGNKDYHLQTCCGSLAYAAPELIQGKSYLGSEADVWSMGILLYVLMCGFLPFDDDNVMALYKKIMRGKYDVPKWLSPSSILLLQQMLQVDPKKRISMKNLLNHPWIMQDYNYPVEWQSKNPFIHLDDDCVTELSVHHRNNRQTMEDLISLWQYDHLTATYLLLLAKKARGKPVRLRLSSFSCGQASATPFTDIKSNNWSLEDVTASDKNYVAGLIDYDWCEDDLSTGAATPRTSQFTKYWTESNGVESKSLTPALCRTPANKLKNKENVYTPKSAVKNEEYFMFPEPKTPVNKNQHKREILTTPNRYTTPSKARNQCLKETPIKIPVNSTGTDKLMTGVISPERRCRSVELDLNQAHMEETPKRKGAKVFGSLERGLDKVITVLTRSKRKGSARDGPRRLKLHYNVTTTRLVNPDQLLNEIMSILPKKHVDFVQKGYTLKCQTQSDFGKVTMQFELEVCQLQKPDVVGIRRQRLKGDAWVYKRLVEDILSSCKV

Row | SMILES | IC50 [1] [µM] | IC50 [2] [µM] | IC50 [3] [µM] | IC50 ([4]; Homo sapiens, A549, 72 h) [µM] | IC50 ([5]; Homo sapiens, T47D, 72 h) [µM] | IC50 [1, 6] [µM] | IC50 [4] [µM] | IC50 ([5]; 72 hours) [µM]
1 | O=C(c1cnc2ccc(-c3cc(Cl)c(O)c(Cl)c3)cc2c1-c1ccc(OCCN2CCCC2)cc1)C1CC1 [Example 485, cyclopropyl(6-(3,5-dichloro-4-hydroxyphenyl)-4-(4-(2-(pyrrolidin-1-yl)ethoxy)phenyl)quinolin-3-yl)methanone] | 0.0056 | 10 | 1.2 | 1.2 | 0.77 | – | – | –
2 | COc1cc(-c2ccc3ncc(C(=O)C4CC4)c(Nc4ccc(CN5CCN(C)CC5)cc4)c3c2)cc(Cl)c1O [Example 398, (6-(3-chloro-4-hydroxy-5-methoxyphenyl)-4-(4-((4-methylpiperazin-1-yl)methyl)phenylamino)quinolin-3-yl)(cyclopropyl)methanone] | – | 4.7 | 0.73 | 0.38 | 0.78 | 0.0084 | – | –
3 | O=C(c1cnc2ccc(-c3cc(F)c(O)c(Cl)c3)cc2c1Nc1cnc(N2CCNCC2)nc1)C1CC1 [Example 496, (6-(3-chloro-5-fluoro-4-hydroxyphenyl)-4-((2-(piperazin-1-yl)pyrimidin-5-yl)amino)quinolin-3-yl)(cyclopropyl)methanone] | 0.0048 | 0.64 | 0.068 | 0.079 | 0.036 | – | – | –
4 | COc1cc(-c2ccc3ncc(C(=O)C4CC4)c(N[C@H]4CC[C@H](CN)CC4)c3c2)cc(Cl)c1O [Example 493, {4-[trans-4-(Aminomethyl)cyclohexylamino]-6-(3-chloro-4-hydroxy-5-methoxyphenyl)quinolin-3-yl}(cyclopropyl)methanone] | 0.003 | 0.82 | 0.068 | 0.095 | 0.078 | – | – | –
5 | COc1cc(-c2ccc3ncc(C(=O)C4CC4)c(N4CCN(C(=O)CN(C)C)CC4)c3c2)cc(Cl)c1O [Example 437, 1-(4-(6-(3-chloro-4-hydroxy-5-methoxyphenyl)-3-(cyclopropanecarbonyl)quinolin-4-yl)piperazin-1-yl)-2-(dimethylamino)ethanone] | – | 1.7 | 0.22 | 0.19 | 0.28 | 0.0011 | – | –
6 | CC(=O)c1cnc2ccc(-c3cnc(C#N)nc3)cc2c1N[C@H]1CC[C@H](CN(C)C)CC1 [Example 418] | – | 1.4 | 0.5 | 0.95 | 0.23 | 0.0073 | – | –
7 | CN1CCN(c2ccc(Nc3c(C(=O)C4CC4)cnc4ccc(-c5cc(Cl)c(O)c(Cl)c5)cc34)cn2)CC1 [Example 472] | 0.023 | 5.7 | 0.11 | 0.18 | 0.3 | – | – | –
8 | CN(C)Cc1ccc(Nc2c(S(C)(=O)=O)cnc3ccc(-c4cc(Cl)c(O)c(Cl)c4)cc23)cc1 [Example 400, 2,6-dichloro-4-(4-((4-((dimethylamino)methyl)phenyl)amino)-3-(methylsulfonyl)quinolin-6-yl)phenol] | – | 1.8 | 0.07 | 0.3 | 0.23 | 0.0034 | – | –
9 | CCOc1cc(-c2ccc3ncc(C(C)=O)c(N[C@H]4CC[C@H](N)CC4)c3c2)cc(Cl)c1O [Example 486] | 0.0021 | 2.2 | 0.13 | 0.11 | 0.15 | – | – | –
10 | COc1cc(-c2ccc3ncc(C(=O)C4CC4)c(-c4cnc(N5CCN(C)CC5)nc4)c3c2)cc(Cl)c1O [Example 475, (6-(3-chloro-4-hydroxy-5-methoxyphenyl)-4-(2-(4-methylpiperazin-1-yl)pyrimidin-5-yl)quinolin-3-yl)(cyclopropyl)methanone] | 0.072 | 4.7 | 1.9 | 0.79 | 0.53 | – | – | –
11 | COc1cc(-c2ccc3ncc(C(=O)C4CC4)c(-c4ccc(C(=O)N5CCN(C)CC5)cc4)c3c2)cc(Cl)c1O [Example 476, (4-(6-(3-chloro-4-hydroxy-5-methoxyphenyl)-3-(cyclopropanecarbonyl)quinolin-4-yl)phenyl)(4-methylpiperazin-1-yl)methanone] | 0.0081 | 2.1 | 0.5 | 0.31 | 0.23 | – | – | –
12 | CN1CCN(c2ccc(Nc3c(C(=O)C4CC4)cnc4ccc(-c5cnc(C#N)nc5)cc34)cn2)CC1 [Example 469] | 0.0015 | 1.4 | 0.43 | 0.99 | 0.18 | – | – | –
13 | CC(=O)c1cnc2ccc(-c3cc(F)c(O)c(Cl)c3)cc2c1Nc1ccc(N2CCN(C)CC2)nc1 [Example 487, 1-(6-(3-Chloro-5-fluoro-4-hydroxyphenyl)-4-(6-(4-methylpiperazin-1-yl)pyridin-3-ylamino)quinolin-3-yl)ethanone] | 0.01 | 1.4 | 0.1 | – | – | – | 0.088 | 0.041
